From patent US10393755B2, “Compositions and methods for treating eye infections and disease” (UNIVERSITY OF VIRGINIA PATENT FOUNDATION, priority 2014, dated 2019)
Numbering of substitutions follows the chain as printed. In names and notes the source's numbering stands. No end group written: not given here.

Columns and labels:
P. aeruginosa = experiment: Lacritin inhibition (colony count) assay, P. aeruginosa; type: cell-based; settings: dose response studies; read-out: Half-maximal inhibition
Method: (§1) Bacterial Growth, SYTOX Green Assays, and on Column Cleavage—E. coli (ATCC (Manassas Va.) catalog no. 10536), S. epidermidis (ATCC catalog no. 12228), and P. aeruginosa (ATCC catalog no. 9027) were grown to mid-log phase in 50 ml of Luria-Bertani (LB) medium and washed three times in phosphate buffer containing 10 mM NaCl (pH 7.2; PB—NaCl) with centrifugation. Pellets were resuspended in 1 ml of PB—NaCl.
(§2) For lacritin inhibition assays, 50 ul of bacterial pellets each diluted 1:100 in PB—NaCl were incubated for 1.5 h (37° C.) with 100 ul of lacritin, lacritin truncations, or synthetic peptides at a final concentration of 0.1-6 uM. Mixtures were diluted 1:10 in PB—NaCl before plating 100 ul in quadruplicate on LB agar plates for overnight growth at 37° C. Colonies were manually counted. In other experiments, mid-log E. coli was treated at 37° C. for 0, 1, 2, or 3 h with 2 uM lacritin or lacritin truncations or with ampicillin (5 uM) or tetracycline (2 uM). After each treatment, 100 ul was centrifuged, resuspended in 1 ml of PB—NaCl, and plated (100 ul) onto LB agar for overnight growth (37° C.) and colony counting.

E. coli = experiment: Lacritin inhibition (colony count) assay, E. coli; type: cell-based; settings: dose response studies; read-out: Half-maximal inhibition
Method: as §1, §2

bacteria = experiment: Lacritin inhibition (colony count) assay, bacterium not given; type: cell-based; settings: synthetic peptides
Method: as §1, §2

HCE-T cells [1] = experiment: Lacritin accelerated autophagy and FOXO3 phosphorylation, inhibitors; type: cell-based, human
Method: Lacritin targeting of corneal sensory neurons. Adrenergic α2C selective antagonist MK912 inhibits lacritin accelerated autophagy in HCE-T cells, as does the syndecan-1 inhibitor xyloside. […] Activity profiles of corneal neurons before, during and 1 hr during/after 10 μM lacritin reveal a small inhibition (from ˜12 to ˜8 spikes/s) follows immediately after the application of lacritin presumably due to α2 adrenergic receptor activation which inhibits TRPM8 channels. Removal of this inhibition after 1 hr of lacritin and washout causes an enhanced excitation of dry (from ˜20 to ˜23 spikes/s) and wet response (from ˜12 to ˜16 spikes/s).

HCE-T cells [2] = experiment: Viability (MTT) / cytoprotection of IFNG/TNF stressed cells; type: cell-based, human; settings: for Cytoprotective activity of lacritin truncation and point mutants: 10 nM, IFNG/TNF stressed cells
Method: Viability was monitored using the 3-(4,5-dimethyl[…])-2,5-diphenyltetrazolium bromide) (MTT) reduction assay (Invitrogen) or a Nucleocounter (New Brunswick Scientific, Edison, N.J.). Cells were seeded overnight in 24-well plates at a density of 500 cells/mm2 to give rise to ˜80% confluence the next day. Then cells were sensitized overnight in IFNG (100 units/ml) in α-MEM and treated in triplicate for 15 min with 10 nm lacritin or lacritin deletion or point mutants or with different lacritin doses in α-MEM together with TNF as described above.
Inclusion of inhibitors was simultaneous with the addition of lacritin or C-25 in all viability and other experiments except where otherwise noted. Inhibitors included PI103 (0.5 μm; EMD, Darmstadt, Germany), rapamycin (10 and 100 nm; EMD), and cyclosporin A (0.1 μm; EMD). One exception was 4-methylumbelliferyl-β-d-xylopyranoside (“xyloside”; 70 and 80 nm; Sigma), which was added during IFNG sensitization and during treatment with TNF and lacritin. The assay was completed by addition of MTT (5 mg/ml) to each well (at 37° C. for 4 h) followed by isopropanol with 0.04 n HCl and measurement at 570 nm using a reference wavelength of 630 nm. Viability was assayed in a Nucleocounter (New Brunswick Scientific).

[3] = type: in vitro ADME, human
Method: A limitation of most synthetic peptide drugs is their protease sensitivity. […] Retropepsin would inactivate LACRIPEP, while cathepsin K would have no effect. However neither protease is found in normal human tears. Nonetheless, tears are rich in other proteases. We therefore incubated LACRIPEP in normal human tears at 37° C. for 2, 4, 6 and 16 hr. For immunoblotting, we first removed all endogenous lacritin by immunodepletion. […] (FIG. 6B).

HCE-T cells [4] = experiment: FOXO3 translocation assay in IFNG/TNF stressed HCE-T cells; type: cell-based, human; settings: 10 nM, interferon-γ and TNF stressed HCE-T cells
Method: For FOXO3 translocation assays, HCE-T cells were grown in triplicate to subconfluence (˜50%) on coverslips in α-MEM (5.54 mm glucose), sensitized overnight in IFNG (100 units/ml; Roche Applied Science), and treated for 15 min with normal or dry eye tears diluted 1:100 in α-MEM together with TNF (50 ng/ml; PeproTech, Rocky Hill, N.J.) without or with 10 nm lacritin or C-25. Cells were washed, fixed with 4% paraformaldehyde, and immunostained for FOXO3 (1:200; Millipore, Billerica, Mass.) followed by goat anti-rabbit secondary antibody and visualization on a Zeiss LSM 700 microscope.

syndecan-1 = molecular target: T1, syndecan-1 (Homo sapiens, UniProt P18827, L136Q); experiment: Binding to syndecan-1
T1 sequence (P18827 23-310 L136Q): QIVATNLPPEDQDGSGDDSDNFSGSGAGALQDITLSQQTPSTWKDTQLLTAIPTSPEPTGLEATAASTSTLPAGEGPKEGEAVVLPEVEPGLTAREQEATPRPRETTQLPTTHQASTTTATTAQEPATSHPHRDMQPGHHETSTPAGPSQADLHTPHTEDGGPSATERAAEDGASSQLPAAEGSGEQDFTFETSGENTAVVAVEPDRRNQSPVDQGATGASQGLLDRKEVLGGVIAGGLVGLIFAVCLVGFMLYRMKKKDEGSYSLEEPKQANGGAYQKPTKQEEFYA

[5] = Phase behavior and nanoparticle formation (optical density, DLS, TEM); type: physicochemical; settings: optical density
Method: The phase diagram for LSI fusion protein was characterized by optical density change at 350 nm as a function of solution temperature using a DU800 UV-Vis Spectrophotometer (Beckman Coulter, Brea, Calif.). Tt was defined at the point of the maximum first derivative. Self-assembly of nanoparticles was measured using dynamic light scattering (DLS) using a DynaPro-LSR Plate Reader (Wyatt Technology, Santa Barbara, Calif.). Light scattering data were collected at regular temperature intervals (1° C.) as solutions were heated from 5 to 50° C. The results were analyzed using a Rayleigh sphere model and fitted into a cumulant algorithm based on the sum-of-squares value.
The TEM imaging was carried out on a FEI Tecnai 12 TWIN microscope (Hillsboro, Oreg.) at 100 kV. Briefly, a 100 uM solution (5 uL) was initially deposited on a copper grid with carbon film (CF400-Cu, Election Microscopy Sciences, Hatfield, Pa.). After removing the excess amount of solution with filter paper, the samples were negatively stained with 2% uranyl acetate, followed by removing excess uranyl acetate after 30 s. b The samples were then dried under room temperature for at least 3 h before use in imaging.

FAQKLLKKFSLLKPWA [N-104]
IC50 (P. aeruginosa): 1000 to 1500 nM
IC50 (E. coli): ~1000 nM
Bactericidal activity of synthetic peptides (bacteria): fully active

LKSIVEKSILLTEQALAKAGKGMH (listed as Homo sapiens) [N-64/C-31]
Colonies with synthetic peptides (bacteria): colonies were abundant

Cc1cc(=O)oc2cc(O[C@@H]3OC[C@@H](O)[C@H](O)[C@H]3O)ccc12 [xyloside, 4-methylumbelliferyl-β-d-xylopyranoside]
Effect on lacritin stimulated FOXO3 phosphorylation (HCE-T cells [1]): inhibit
Effect on lacritin cytoprotective activity (HCE-T cells [2]; cells cultured overnight in xyloside): completely abrogated

CN1CC[C@]2(CCN3CCc4c(oc5ccccc45)[C@@H]3C2)N(C)C1=O [MK912]
Effect on lacritin stimulated FOXO3 phosphorylation (HCE-T cells [1]): inhibit
Effect on lacritin accelerated autophagy (HCE-T cells [1]; HCE-T cells): inhibits

Ac-KQFIENGSEFAQKLLKKFS-NH2 [N-94/C-6, KQFIENGSEFAQKLLKKFS]
Bactericidal activity of synthetic peptides (bacteria): slightly so
Bactericidal activity of synthetic peptides (bacteria; listed as SEQ ID NO: 5): substantially reduced the bactericidal activity
Epitopes by immunoblotting after incubation in tears [3]: loses epitopes
Stability relative to LACRIPEP [3]: not as stable
Activity of synthetic peptide relative to lacritin (HCE-T cells [2]; generated synthetically): as potent as lacritin

Ac-KQFIENGSEFAQKLLKKFSLLKPWA (N-terminus assumed) [LACRIPEP]
Time stable in human tears (immunoblot) [3]: at least 16 hr

AKAGKGMHGGVPGG (listed as Homo sapiens) [N-80/C-25]
Colonies with synthetic peptides (bacteria): colonies were abundant

B1: Cross-linked lacritin: lacritin monomer cross-linked into inactive multimers by tissue transglutaminase (protein)
chain: EDASSDSTGADPAQEAGTSKPNEEISGPAEPASPPETTTTAQETSAAAVQGTAKVTSSRQELNPLKSIVEKSILLTEQALAKAGKGMHGGVPGGKQFIENGSEFAQKLLKKFSLLKPWA
FOXO3 cytoplasmic staining (pro-survival activity) (HCE-T cells [4]): less active
FOXO3 cytoplasmic staining (pro-survival activity) (HCE-T cells [4]; listed as tissue transglutaminase polymerized lacritin): inactive
Binding to syndecan-1 (syndecan-1): substantially less

B2: L65S: lacritin point mutant (protein, UniProt Q9GZZ8 20-138, looked up, variant L65S)
Extracellular glycoprotein …: B1 chain with L65S
Cytoprotective activity of lacritin truncation and point mutants (HCE-T cells [2]): unaffected

B3: I98S: lacritin point mutant (protein, UniProt Q9GZZ8 20-138, looked up, variant I98S)
Extracellular glycoprotein …: B1 chain with I98S
Cytoprotective activity of lacritin truncation and point mutants (HCE-T cells [2]): significantly less active

B4: L108S/L109S/F112S: lacritin triple point mutant (protein, UniProt Q9GZZ8 20-138, looked up, variant L108S L109S F112S)
Extracellular glycoprotein …: B1 chain with L108S, L109S, F112S
Cytoprotective activity of lacritin truncation and point mutants (HCE-T cells [2]): significantly less active

B5: I73S: lacritin point mutant (protein, UniProt Q9GZZ8 20-138, looked up, variant I73S)
Extracellular glycoprotein …: B1 chain with I73S
Cytoprotective activity of lacritin truncation and point mutants (HCE-T cells [2]): unaffected

B6: F104S: lacritin point mutant (protein, UniProt Q9GZZ8 20-138, looked up, variant F104S)
Extracellular glycoprotein …: B1 chain with F104S
Cytoprotective activity of lacritin truncation and point mutants (HCE-T cells [2]): significantly less active

B7: V69S: lacritin point mutant (protein, UniProt Q9GZZ8 20-138, looked up, variant V69S)
Extracellular glycoprotein …: B1 chain with V69S
Cytoprotective activity of lacritin truncation and point mutants (HCE-T cells [2]): unaffected

B8: F112S: lacritin point mutant (protein, UniProt Q9GZZ8 20-138, looked up, variant F112S)
Extracellular glycoprotein …: B1 chain with F112S
Cytoprotective activity of lacritin truncation and point mutants (HCE-T cells [2]): significantly less active

B9: LS96: lacritin fused to soluble ELP (VPGSG)96; thermally nonresponsive control (protein)
chain: GEDASSDSTGADPAQEAGTSKPNEEISGPAEPASPPETTTTAQETSAAAVQGTAKVTSSRQELNPLKSIVEKSILLTEQALAKAGKGMHGGVPGGKQFIENGSEFAQKLLKKFSLLKPWAGLVPRGSGVPGSGY
modifications: ELP lacritin fusion construct; (129)..(133) the sequence VPGSG is directly repeated 96 times
notes: lacritin fused to soluble ELP (VPGSG)96; thermally nonresponsive control
Phase transitions in phosphate buffered saline [5]: does not display any observable phase transitions
